From patent US20150335548A1, “Oral Care Composition” (COLGATE-PALMOLIVE COMPANY, priority 2012, published 2015)

Experiments:
Format in all cases: cell-based
[1] = system: 3-day old biofilm of the artificial mouth consortium of bacteria (A. naeslundii, S. oralis, V. parvula, L. casei, F. nucleatum) and S. mutans; assay: In vitro biofilm removal, 3-day old biofilm (protocol of Example 2); settings: for Percent Removal of a 3-day Oral Biofilm: […] ionic liquid in base prototype mouth rinse of Table 1, 15 minutes, relative to water control; for Percent Biofilm Removal: BMIM-based ionic liquids
Description: The 3-day old biofilm was grown on a 24 well plate using the artificial mouth consortium of bacteria (A. naeslundii, S. oralis, V. parvula, L. casei, F. nucleatum) and S. mutans. To generate the biofilm, plates were inoculated with saliva overnight to form a pellicle. The consortium of bacteria (1 mL) at an OD of ˜0.2 was added to each well. The bacterial media (Tryptic Soy Broth with 6% sucrose) was changed after 48 hours. The 3-day old biofilm was treated with the prototype formulation (500 μL) for 15 minutes on a plate shaker at 300 rpm. After incubation, the supernatant was discarded. The optical density of each well was measured and the percentage reduction in optical density relative to the control (water) was calculated to determine the effect of the prototype formulation on biofilm removal. […]
Water, untreated biofilm, commercially available mouthwash formulations with CPC (Cetyl pyridinium chloride) and a mouthwash containing five enzymes for combatting biofilm acted as […] for the experiment.

A. viscosus = assay: Growth inhibition of A. viscosus (optical density over time); settings: for optical density of A. viscosus culture, 0 h / optical density of A. viscosus culture, 4 h / optical density of A. viscosus culture, 22 h / optical density of A. viscosus culture, 24 h: 10% concentration in a mouth rinse
Description: The effects of 1-decyl-3-methylimidazolium (DMIM) chloride on bacterial growth were investigated in vitro. DMIM chloride was incorporated into a prototype mouth rinse as illustrated in Table 17. […] The growth inhibition was measured as a change in optical density over time.
The antibacterial effects of various ionic liquids were determined according to the protocol described in Example 12.

[2] = system: 3-day old multispecies oral biofilm (artificial mouth consortium combined with Streptococcus mutans); assay: In vitro removal of biofilm by prototype mouthrinse formulations (Example 8); settings: for % removal in High humectant mouthwash / % removal in Low humectant mouthwash: 3-day old biofilm; for Percent Biofilm Removal: 10% glycerin and 5% propylene glycol
Description: General Procedures Used to Prepare Biofilm
The analyst used a commercially available fluoride dentifrice (Colgate Pro Clinical) and a soft bristled toothbrush (Colgate 360) for routine oral hygiene for 3 days prior to the start of saliva collection. Saliva was collected in the morning, at least two hours after a meal and was centrifuged at 10,000 rpm for 20 minutes. The supernatant was decanted into a Petri dish and placed under UV for 45 minutes.
Bacteria Preparation: Bacteria were taken from the artificial mouth consortium (containing Actinomyces naeslundii, Streptococcus oralis, Veillonella parvula, Lactobacillus casei, and Fusibacterium nucleatum) and combined with Streptococcus mutans which had been grown separately in a ratio of 2:1. Bacteria were grown in tryptic soy broth (TSB) media with 6% sucrose. The resulting bacterial culture was diluted to the required volume, prior to diluting to an optical density of 0.2.
Plate Preparation: 500 μL of UV-treated saliva were added to each well of a 24-well plate. Plates were inoculated overnight in 37° C. After inoculation, excess saliva was discarded and 1 ml of bacteria was added to each well. The bacteria were allowed to attach and develop a biofilm on the bottom of each well over 2 to 4 days, changing the media every 48 hours. During media change, the old media was discarded and 1 ml of fresh media was added.
Treatment: 500 μL of ionic liquid formulation was added to each well and incubated for 4-30 minutes on a plate shaker at 300 rpm. After incubation, the supernatant was discarded. No rinsing was carried out. The optical density of each well was measured at 610 nm, and the percentage reduction in biofilm reduction relative to the control (water) was calculated.
Second Treatment: 500 μL of ionic liquid formulation was added to each well and incubated for 4-30 minutes on a plate shaker at 300 rpm. After discarding the supernatant, the optical density was measured and the percentage reduction in biofilm formation relative to the control (water) was calculated.
An 8 factor design was used. Colgate Plax Re-launch mouth rinse was used a base formulation to build upon. […] Table 11 illustrates the general formulation on the basis of which the prototype formulations were designed.
74 prototype formulations were developed. There are shown below in Table 12 (see next page). Table 12 further illustrates the percentage biofilm reduction after one 15-minute treatment of a 3-day-old biofilm with the formulation, and the viscosity for each formulation. In Table 12, PG is propylene glycol; CPC is cetyl pyridinium chloride; and TRIS is tris(2-hydroxyethyl)methylammonium methylsulfate. All amounts are given in wt %.

[3] = EMIM-based ionic liquids, […] in base prototype mouth rinse of Table 1, 3-day old biofilm
[4] = direct comparison EMIM vs BMIM with different anions, 3-day old biofilm
[5] = other ionic liquids, 3-day old biofilm
[6] = […] in base prototype mouth rinse of Table 1, 3-day old biofilm
[7] = one ionic liquid at 10, the other at 0
[8] = one ionic liquid at 20, the other at 0

| Compound | Percent Removal of a 3-day Oral Biofilm [1] | optical density of A. viscosus culture, 0 h (A. viscosus) | optical density of A. viscosus culture, 4 h (A. viscosus) | optical density of A. viscosus culture, 22 h (A. viscosus) | optical density of A. viscosus culture, 24 h (A. viscosus) | also measured |
| --- | --- | --- | --- | --- | --- | --- |
| CC(=O)[O-].CCn1cc[n+](C)c1 [EMIM OAc, EMIM acetate] | 52.1% | 0.1482 | 0.2324 | 0.7942 | 0.8223 | Percent Biofilm Removed [1, 3]: 52.1%; Percent Biofilm Removed [1, 4]: 52.1% |
| C=CCn1cc[n+](C)c1.[Cl-] [AMIM Cl, 1-allyl-3-methylimidazolium (AMIM) chloride] | 44.8% | 0.1482 | 0.2265 | 0.7091 | 0.8440 | biofilm removal, comparison in words ([1]; 3-day old biofilm): effective in removing biofilm; Percent Biofilm Removed [1, 5]: 44.8% |
| CCn1cc[n+](C)c1.Cc1ccc(S(=O)(=O)[O-])cc1 [EMIM Tosylate, EMIM tosylate] | 59.5% |  |  |  |  | Percent Biofilm Removed [1, 3]: 59.5% |
| CCCCn1cc[n+](C)c1.[Br-] [BMIM Br, 1-butyl-3-methylimidazolium (BMIM) bromide] | 48.0% | 0.1482 | 0.2373 | 0.5994 | 0.8244 | Percent Biofilm Removal [1, 6]: 48.0%; Percent Biofilm Removed [1, 4]: 48.0% |
| tris(2-hydroxyethyl)methylammonium methylsulfate [MTEOA MeSO4] | 52.8% | 0.1482 | 0.2605 | 0.8415 | 0.9087 | Percent Biofilm Removed [1, 5]: 52.8%; % removal in High humectant mouthwash ([2]; Conc Tris-HMAM 1%): 39.0%; % removal in Low humectant mouthwash ([2]; Conc Tris-HMAM 1%): 25.6%; % removal in High humectant mouthwash ([2]; Conc Tris-HMAM 2.5%): 50.5%; % removal in Low humectant mouthwash ([2]; Conc Tris-HMAM 2.5%): 28.2%; % removal in High humectant mouthwash ([2]; Conc Tris-HMAM 5%): 53.9%; % removal in Low humectant mouthwash ([2]; Conc Tris-HMAM 5%): 30.9%; % removal in High humectant mouthwash ([2]; Conc Tris-HMAM 10%): 57.7%; % removal in Low humectant mouthwash ([2]; Conc Tris-HMAM 10%): 46.8%; % removal in High humectant mouthwash ([2]; Conc Tris-HMAM 20%): 71.1%; % removal in Low humectant mouthwash ([2]; Conc Tris-HMAM 20%): 57.3%; % removal in High humectant mouthwash ([2]; Conc Tris-HMAM 40%): 73.2%; % removal in Low humectant mouthwash ([2]; Conc Tris-HMAM 40%): 67.1%; Percent Biofilm Removal [2, 7]: 47%; Percent biofilm removal if sorbitol at 20% [2, 7]: 52%; Percent Biofilm Removal [2, 8]: 60%; Percent biofilm removal if sorbitol at 20% [2, 8]: 65% |
| choline acetate |  | 0.1482 | 0.2559 | 0.9480 | 1.0385 |  |
| CCCCCCCCOS(=O)(=O)[O-].CCCCn1cc[n+](C)c1 [BMIM Octyl SO4, BMIM octyl sulfate] | 58.6% |  |  |  |  | Percent Biofilm Removal [1, 6]: 58.6% |
| CCOP(=O)([O-])OCC.CCn1cc[n+](C)c1 [EMIM diethyl PO4, EMIM diethyl phosphate] | 52.7% |  |  |  |  | Percent Biofilm Removed [1, 3]: 52.7% |
| C[N+](C)(C)CCO.O=C([O-])c1ccccc1O [Choline salicylate, choline salicylate] |  | 0.1482 | 0.1523 | 0.1542 | 0.1539 | Percent Biofilm Removal [2, 7]: 48%; Percent biofilm removal if sorbitol at 20% [2, 7]: 53%; Percent Biofilm Removal [2, 8]: 61%; Percent biofilm removal if sorbitol at 20% [2, 8]: 66%; growth inhibition of A. viscosus, in words (A. viscosus; formulated at 10% concentration in a mouth rinse): greater growth inhibition of A. viscosus than control compositions containing cetyl pyridinium chloride |
| CC(=O)[O-].CCCCn1cc[n+](C)c1 [BMIM OAc, BMIM acetate] | 55.9% |  |  |  |  | Percent Biofilm Removal [1, 6]: 55.8%; Percent Biofilm Removed [1, 4]: 55.8% |
| COS(=O)(=O)[O-].Cc1n(C)cc[n+]1C [TMIM MeSO4, 1,2,3-trimethylimidazolium (TMIM) methyl sulfate] | 51.8% |  |  |  |  | Percent Biofilm Removed [1, 5]: 51.8% |
| CCn1cc[n+](C)c1.[Cl-] [EMIM Cl, 1-ethyl-3-methylimidazolium (EMIM) chloride] | 44.3% |  |  |  |  | Percent Biofilm Removed [1, 3]: 44.3%; Percent Biofilm Removed [1, 4]: 44.3% |
| C[N+](C)(C)CCO.[Cl-] [F: Choline chloride, Choline chloride] |  | 0.1482 | 0.2445 | 1.0236 | 1.0674 |  |
| 1,2,4-trimethylpyrazolium methylsulfate [MMMPz MeSO4] | 57.8% | 0.1482 | 0.1978 | 0.8519 | 1.0042 | Percent Biofilm Removed [1, 5]: 57.9% |
| OC[C@@H](O)[C@@H](O)[C@H](O)[C@@H](O)CO [sorbitol] |  |  |  |  |  | increase in biofilm removal ([2]; 20% sorbitol in the formulations): ~5% |
| CCCCn1cc[n+](C)c1.[Cl-] [BMIM Cl, 1-butyl-3-methylimidazolium (BMIM) chloride] | 43.8% |  |  |  |  | Percent Biofilm Removal [1, 6]: 43.8%; Percent Biofilm Removed [1, 4]: 43.8% |
| CCCCn1cc[n+](C)c1.COS(=O)(=O)[O-] [BMIM MeSO4, BMIM methyl sulfate] | 53.9% |  |  |  |  | Percent Biofilm Removal [1, 6]: 53.9% |
